From PMC7694207, “Functional Characterization of the N-Acetylmuramyl-L-Alanine Amidase, Ami1, from Mycobacterium abscessus” (Cells, 2020)
Non-standard residues stand in square brackets, D forms with d. Residues, ends and D or L forms follow the SMILES beside them.

Legend:
Ami1Mab [1] = target: T1, Ami1Mab (Mycobacteroides abscessus, UniProt B1MFL7); experiment: X-ray co-crystal structure, […] Å; format: binding; conditions: co-crystallized with 5 mM dipeptide; active site near Zn2+
T1 construct: gene MAB_0318c; first 40 residues (signal peptide) removed; pET151 N-terminal tag cut by TEV; E. coli BL21(DE3) pRARE2; zinc enzyme
T1 sequence (B1MFL7 entry or part of it): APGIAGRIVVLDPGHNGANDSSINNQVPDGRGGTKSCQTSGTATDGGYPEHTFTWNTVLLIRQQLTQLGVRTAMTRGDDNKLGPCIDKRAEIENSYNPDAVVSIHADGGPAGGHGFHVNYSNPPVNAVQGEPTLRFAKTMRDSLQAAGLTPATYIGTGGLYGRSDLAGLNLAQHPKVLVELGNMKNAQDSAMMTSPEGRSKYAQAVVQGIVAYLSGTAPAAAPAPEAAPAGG

Ami1Mab [2] = target: T1, Ami1Mab; experiment: TLC-based muramyl-dipeptide hydrolysis assay; format: biochemical; conditions: substrate MDP; PBS; 37 °C
Ami1Mab [3] = target: T1, Ami1Mab; experiment: TLC-based muramyl-dipeptide hydrolysis assay; format: biochemical; conditions: substrate MDP; PBS; 37 °C; compound numbering as in Results
Ami1Mab [4] = target: T1, Ami1Mab; experiment: TLC-based muramyl-dipeptide hydrolysis assay; format: biochemical; conditions: substrate MDP; PBS; 37 °C; compound numbering as in Results; remark: listed apart in the source
Ami1Mab [5] = target: T1, Ami1Mab; experiment: TLC hydrolysis assay, ninhydrin; format: biochemical; conditions: PBS, 37 °C, 30 min; Zn2+-dependent
Ami1Mtb = target: T2, Ami1Mtb (Mycobacterium tuberculosis, UniProt I6Y4D2); format: biochemical
T2 construct: gene Rv3717
T2 sequence (I6Y4D2 whole entry, looked up): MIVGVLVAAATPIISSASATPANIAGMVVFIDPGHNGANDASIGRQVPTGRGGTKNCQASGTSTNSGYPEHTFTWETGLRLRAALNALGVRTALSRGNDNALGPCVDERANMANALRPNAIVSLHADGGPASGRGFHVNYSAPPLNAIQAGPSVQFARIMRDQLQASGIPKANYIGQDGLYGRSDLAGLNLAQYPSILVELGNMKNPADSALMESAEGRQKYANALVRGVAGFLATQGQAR

C[C@H](N)C(=O)N[C@H](CCC(=O)O)C(N)=O [L-Ala-D-IsoGln] (H-Ala-[dE]-NH2)
X-ray co-crystal structure, 1.7 Å (Ami1Mab [1]): The co-crystal structure of Ami1Mab bound to L-Ala-D-IsoGln was also solved

O=C(O)c1coc2ccnc(Cl)c12 [compound 1, 4-chlorofuro [3,2-c]pyridine-3-carboxylic acid]
inhibitory effect, starting at (Ami1Mab [2]): 150 to 200 µM

Nc1ccccc1-c1nn[nH]n1 [compound 2, 2-(1H-1,2,3,4-tetrazol-5-yl)aniline]
inhibitory activity starting at (Ami1Mab [3]): 800 µM

O=C(O)c1ccnc(Cl)c1C(=O)O [compound 3, 2-chloropyridine-3,4-dicarboxylic acid]
inhibitory effect, starting between (Ami1Mab [4]): 250 to 500 µM

CC(=O)N[C@H]1C(O)O[C@H](CO)[C@@H](O)[C@@H]1O[C@H](C)C(=O)N[C@@H](C)C(=O)N[C@H](CCC(=O)O)C(N)=O (stereo partly drawn) [muramyl-dipeptide]
TLC hydrolysis assay, ninhydrin (Ami1Mab [5]): MDP was rapidly hydrolyzed by Ami1Mab | TLC hydrolysis assay, ninhydrin (Ami1Mtb): Activity of both Ami1Mab and Ami1Mtb is inhibited after incubation with EDTA
